Test systems include Staphylococcus aureus; Streptococcus iniae; Vibrio harveyi; Vibrio parahaemolyticus; Lactococcus garvieae; Vibrio alginolyticus.
Common to all, as to experiment: ≥ marks a high value that may be exact or a test limit, other limits are often not marked, values filed in µg/mL are converted to µM
The test system of assay [1] is Staphylococcus aureus ATCC 6538.
Assay [2] has as its system Escherichia coli DH5alpha.
Assay [3] relates to Micrococcus luteus ATCC 4698.
In assay [4] the test system is Staphylococcus epidermidis ATCC 12228.
Assay [5] deals with Streptococcus gordonii Challis DL1.
Assay [6] concerns Streptococcus mitis ATCC 903.
The subject of assay [7] is Streptococcus mutans UA159.
Assay [8] relates to Pseudomonas aeruginosa PAK.
The subject of assay [9] is Streptococcus sanguinis NY101.
In assay [10] the test system is Klebsiella oxytoca BCRC 13985.
Assay [11] has as its system Streptococcus equinus BCRC 14729.
Assay [12] has as its system Enterobacter cloacae BCRC 10401.
Assay [13] relates to Pseudomonas aeruginosa BCRC 10944.
Assay [14] has as its system Staphylococcus aureus BCRC 10780.
Assay [15] relates to Escherichia coli BCRC 10675.
Assay [16] concerns Vibrio parahaemolyticus BCRC 10806.
For assay [17], the system named is Staphylococcus aureus BCRC 10781.
In assay [18] the test system is Staphylococcus xylosus BCRC 12930.
The subject of assay [19] is Listeria monocytogenes BCRC 14845.
The test system of assay [20] is Vibrio alginolyticus BCRC 12829.
Assay [21] deals with Vibrio anguillarum serotype O1.
Assay [22] relates to Yersinia enterocolitica BCRC 13999.
Assay [23] relates to Klebsiella aerogenes BCRC 10370.

≈ marks a conversion by molar mass, not a printed value. Where only a bound is given, the exact number is not on record here.

In the case of `CC(C)C[C@H](NC(=O)[C@H](CC(C)C)NC(=O)[C@H](CCCCN)NC(=O)[C@H](CCCCN)NC(=O)[C@H](CC(C)C)NC(=O)[C@H](C)NC(=O)[C@H](CCCCN)NC(=O)[C@H](Cc1ccccc1)NC(=O)[C@H](CC(C)C)NC(=O)[C@H](C)NC(=O)[C@H](CCCCN)NC(=O)[C@H](CC(C)C)NC(=O)[C@@H](N)Cc1ccccc1)C(=O)O` [FLKALFKALKKLL], the MIC was 5.87 µM (≈ 9 µg/mL) in [1], 7.83 µM (≈ 12 µg/mL) in [2], 1.96 µM (≈ 3 µg/mL) in [3] and 6.52 µM (≈ 10 µg/mL) in assay [4].
The compound `CC[C@H](C)[C@@H]1NC(=O)[C@H](CO)NC(=O)[C@H](CCCCN)NC(=O)[C@@H](N)CSSC[C@@H](C(=O)NCC(=O)O)NC(=O)[C@H](CCCN=C(N)N)NC(=O)CNC(=O)[C@@H]2CCCN2C1=O` [CKSIPGRCG] gave a minimal inhibitory concentration (MIC) in assay [3] of at least 75 µM.
On to `CC[C@H](C)[C@H](NC(=O)[C@H](Cc1ccccc1)NC(=O)[C@H](Cc1cnc[nH]1)NC(=O)[C@H](CCCCN)NC(=O)[C@@H](NC(=O)[C@@H](N)Cc1ccccc1)[C@@H](C)CC)C(=O)N[C@@H](Cc1cnc[nH]1)C(=O)N[C@@H](CCCN=C(N)N)C(=O)N[C@@H](Cc1ccccc1)C(=O)N[C@@H](CO)C(=O)N[C@@H](C)C(=O)N[C@H](C(=O)N[C@@H](CC(C)C)C(=O)N[C@@H](CCC(N)=O)C(=O)N[C@@H](CC(C)C)C(=O)N[C@@H](CC(C)C)C(=O)N[C@@H](CCCCN)C(=O)N[C@@H](CCC(N)=O)C(=O)N[C@@H](CC(C)C)C(=O)N[C@@H](CC(C)C)C(=O)N[C@@H](CCCCN)C(=O)N[C@@H](CC(C)C)C(=O)N[C@@H](CC(C)C)C(=O)N[C@@H](CCCCN)C(=O)N[C@@H](CCC(N)=O)C(=O)N[C@@H](Cc1ccccc1)C(N)=O)[C@@H](C)O` [FIKHFIHRFSATLQLLKQLLKLLKQF], for which the MIC in [5] amounted to 2.49 µM (≈ 8 µg/mL); with Staphylococcus aureus, 19.5 µM (≈ 62.5 µg/mL); in assay [6], 9.96 µM (≈ 32 µg/mL); in assay [7] it was 4.98 µM (≈ 16 µg/mL); in assay [8] it was 9.96 µM (≈ 32 µg/mL); in assay [9], 4.98 µM (≈ 16 µg/mL).
As to `CC[C@H](C)[C@H](NC(=O)[C@H](Cc1ccc(O)cc1)NC(=O)[C@H](CC(N)=O)NC(=O)[C@H](Cc1ccccc1)NC(=O)[C@@H](NC(=O)[C@H](CCCCN)NC(=O)[C@H](CCCCN)NC(=O)[C@@H](NC(=O)[C@H](CC(C)C)NC(=O)[C@H](CC(N)=O)NC(=O)[C@H](C)NC(=O)[C@H](Cc1ccccc1)NC(=O)[C@H](CCCCN)NC(=O)[C@H](CCCCN)NC(=O)[C@H](C)NC(=O)[C@H](C)NC(=O)[C@H](CC(N)=O)NC(=O)[C@H](C)NC(=O)CN)[C@@H](C)CC)[C@@H](C)CC)C(=O)N[C@@H](Cc1c[nH]c2ccccc12)C(=O)O` [GANAAKKFANLIKKIFNYIW], the MIC was 13.8 µM (≈ 32 µg/mL) in assay [10]; at least 55.4 µM in the assay on Streptococcus iniae; 3.46 µM (≈ 8 µg/mL) against Vibrio harveyi; at least 55.4 µM in assay [11]; 6.92 µM (≈ 16 µg/mL) in the assay on Vibrio parahaemolyticus; 6.92 µM (≈ 16 µg/mL) in [12]. In addition, the MIC in [13] is 13.8 µM (≈ 32 µg/mL); against Lactococcus garvieae it was at least 55.4 µM; in assay [14], 3.46 µM (≈ 8 µg/mL); in assay [15], 6.92 µM (≈ 16 µg/mL); in [16], 13.8 µM (≈ 32 µg/mL); in [17], 6.92 µM (≈ 16 µg/mL). In addition, the MIC in [18] is 6.92 µM (≈ 16 µg/mL); in assay [19] it was 13.8 µM (≈ 32 µg/mL); in assay [20], 13.8 µM (≈ 32 µg/mL); in assay [21] it was 6.92 µM (≈ 16 µg/mL); against Vibrio alginolyticus, 6.92 µM (≈ 16 µg/mL); in [22], at least 55.4 µM. This compound had an MIC in [23] of 6.92 µM (≈ 16 µg/mL).
Consider `CC[C@H](C)[C@H](NC(=O)CN)C(=O)N[C@@H](CCCCN)C(=O)N[C@H](C(=O)N[C@@H](C)C(=O)N[C@@H](CCCCN)C(=O)N[C@@H](CCCCN)C(=O)N[C@@H](C)C(=O)N[C@H](C(=O)N[C@H](C(=O)N[C@H](C(=O)N[C@@H](C)C(=O)N[C@@H](CCCCN)C(=O)N[C@@H](CCCCN)C(=O)N[C@H](C(=O)N[C@@H](C)C(=O)N[C@@H](CCCCN)C(=O)N[C@H](C(=O)N[C@@H](Cc1ccc(O)cc1)C(=O)N[C@@H](Cc1c[nH]c2ccccc12)C(=O)O)[C@@H](C)CC)[C@@H](C)CC)[C@@H](C)CC)[C@@H](C)O)[C@@H](C)CC)[C@@H](C)CC` [GIKIAKKAITIAKKIAKIYW], for which the MIC in assay [10] is 14.2 µM (≈ 32 µg/mL); with Streptococcus iniae, at least 56.7 µM; in the assay on Vibrio harveyi, 14.2 µM (≈ 32 µg/mL); in assay [11], at least 56.7 µM; with Vibrio parahaemolyticus, 7.09 µM (≈ 16 µg/mL); in [12], 3.54 µM (≈ 8 µg/mL). In addition, the MIC in assay [13] was 7.09 µM (≈ 16 µg/mL); with Lactococcus garvieae, at least 56.7 µM; in assay [14], 14.2 µM (≈ 32 µg/mL); in assay [15] it was 7.09 µM (≈ 16 µg/mL); in assay [16] it was at least 56.7 µM; in [17], 14.2 µM (≈ 32 µg/mL). Besides, the MIC in assay [18] is 1.77 µM (≈ 4 µg/mL); in assay [19], 14.2 µM (≈ 32 µg/mL); in assay [20], at least 56.7 µM; in assay [21], 14.2 µM (≈ 32 µg/mL); against Vibrio alginolyticus, 1.77 µM (≈ 4 µg/mL); in [22] it was 14.2 µM (≈ 32 µg/mL). In addition, the minimal inhibitory concentration (MIC) in [23] is 7.09 µM (≈ 16 µg/mL).
Turning to `CC[C@H](C)[C@H](NC(=O)[C@H](Cc1ccccc1)NC(=O)[C@H](Cc1cnc[nH]1)NC(=O)[C@H](CCCCN)NC(=O)[C@@H](NC(=O)[C@H](Cc1ccccc1)NC(=O)[C@@H](NC(=O)[C@H](C)NC(=O)[C@H](CO)NC(=O)[C@H](Cc1ccccc1)NC(=O)[C@H](CCC(N)=O)NC(=O)[C@H](CCCCN)NC(=O)[C@H](CC(C)C)NC(=O)[C@H](CC(C)C)NC(=O)[C@H](CCCCN)NC(=O)[C@H](CC(C)C)NC(=O)[C@H](CC(C)C)NC(=O)[C@H](CCC(N)=O)NC(=O)[C@H](CCCCN)NC(=O)[C@H](CC(C)C)NC(=O)[C@H](CC(C)C)NC(=O)[C@H](CCC(N)=O)NC(=O)[C@@H](N)CC(C)C)[C@@H](C)O)[C@@H](C)CC)C(=O)N[C@@H](Cc1cnc[nH]1)C(=O)N[C@@H](CCCN=C(N)N)C(=O)N[C@@H](Cc1ccccc1)C(N)=O` [LQLLKQLLKLLKQFSATFIKHFIHRF], the MIC was determined as 4.98 µM (≈ 16 µg/mL) in assay [5]; 9.96 µM (≈ 32 µg/mL) in the assay on Staphylococcus aureus; 9.96 µM (≈ 32 µg/mL) in assay [6]; 2.49 µM (≈ 8 µg/mL) in [7]; 9.96 µM (≈ 32 µg/mL) in [8]; 4.98 µM (≈ 16 µg/mL) in [9].

A word on the MIC: it is the smallest concentration in the dilution series that meets the test's criterion for growth inhibition. Higher therefore signals a less susceptible organism.

Source of the values: DBAASP.
